Data from patent US20240390301A1, “COMBINATIONS OF PERIPHERAL 5-HT2A RECEPTOR ANTAGONISTS AND CENTRAL 5-HT2A RECEPTOR AGONISTS” (priority 2021, published 2024).
Like-named read-outs stand apart in the source and are kept apart here.

Tests used:
[1] = tested on: DOPR-induced elevation of MABP; assay: Effect on DOPR-induced blood pressure (MABP) elevation in anesthetized rats; format: in vivo, Sprague-Dawley rats
Experimental: Key peripheral 5-HT2A receptor antagonists were tested for their ability to block the increases in blood pressure (BP) induced by a maximally effective dose (in terms of HTR response) of 2,5-dimethoxy-4-propylamphetamine (DOPR) in anesthetized rats, with the key results summarized in FIGS. 5-9. FIG. 5 depicts in a bar graph the effect of xylamidine pre-treatment on DOPR-induced elevation of MABP in the rat. The indicated doses of xylamidine or vehicle were administered SC, followed 10 minutes later by DOPR (0.32 mg/kg, SC), and mean percent change in MABP relative to the baseline recording for each group was calculated for the 20 minutes immediately after DOPR administration (10-30 min after administration of xylamidine). *p<0.05, **p<0.01 vs. vehicle using Dunnett's multiple comparison test. FIG. 6 depicts in a bar graph the effect of BW501C67 pre-treatment on DOPR-induced elevation of MABP in the rat. The indicated doses of BW501C67 or vehicle were administered SC, followed 10 minutes later by DOPR (0.32mg/kg, SC), and mean percent change in MABP relative to the baseline recording for each group was calculated for the 20 minutes immediately after DOPR administration (10-30 min after administration of BW501C67). *p<0.05 vs. vehicle using Dunnett's multiple comparison test. FIG. 7 depicts in a bar graph the effect of xylamidine pre-treatment on DOPR-induced elevation of MABP in the rat. The indicated doses of xylamidine or vehicle were administered SC. followed 10 minutes later by DOPR (0.32 mg/kg, SC), and mean percent change in MABP relative to the baseline recording for each group was calculated for the period 45-55 minutes after DOPR administration (55-65 min after administration of xylamidine). *p<0.05, ***p<0.001 vs. vehicle using Dunnett's multiple comparison test. FIG. 8 depicts in a bar graph the effect of BW501C67pre-treatment on DOPR-induced elevation of MABP in the rat. The indicated doses of BW501C67or vehicle were administered SC, followed 10 minutes later by DOPR (0.32 mg/kg, SC), and mean percent change in MABP relative to the baseline recording for each group was calculated for the period 45-55 minutes after DOPR administration (55-65 min after administration of BW501C67). *p<0.05, **p<0.01, ***p<0.001 vs. vehicle using Dunnett's multiple comparison test. FIG. 9 depicts in a bar graph the effect of Compound 14a pre-treatment on DOPR-induced elevation of MABP in the rat. The indicated doses of Compound 14a or vehicle were administered SC, followed 10 minutes later by DOPR (0.32 mg/kg, SC), and mean percent change in MABP relative to the baseline recording for each group was calculated for the 20 minutes immediately after DOPR administration (10-30 min after administration of Compound 14a).
Animals. Adult male Sprague-Dawley rats aged 8 weeks (body weight ˜270 g) were used in these experiments. Animals were pair housed under controlled temperatures and 12-hour light/dark cycles (lights on between 07:00-19:00 h), with ad libitum food and water. The protocol was approved by the Eurofins Advinus Institutional Animal Care and Use Committee. […]
Drugs and Drug administration. […] The 5-HT2A receptor agonist DOPR was then administered at 1 dose (0.32 mg/kg. SC, in saline, calculated based on the free base) to all animals 10 min after pretreatment with the test peripheral antagonist or vehicle (saline). […]

[2] = Rat plasma stability; format: in vitro ADME; conditions: 37° C.
Experimental: The results were used to confirm that the plasma protein binding results were not confounded by poor plasma stability.
Method 1. […] Plasma was centrifuged at 4,000 rpm for 5 min and any clots were remove.
Method 2. […]

[3] = 37° C.
Experimental: Method 1. Pooled frozen rat brain homogenate was thawed in a water bath at 37° C. prior to the experiment. Using an Apricot automation workstation, 98 μL/well of blank brain homogenate or 100 mM PBS were added to all 96-well reaction plates (Blank, T0, T10, T30, T60, and T120). […] All reaction plates containing mixtures of compound and brain homogenate were incubated at 37° C. in a water bath for up to 120 minutes. At the end of incubation, 500 uL of stop solution (200 ng/mL tolbutamide and 200 ng/mL labetalol in ACN) was added to precipitate protein and mixed thoroughly for 20 minutes at 4° C. After centrifugation at 4,000 rpm and 4° C. for 20 minutes, an Apricot automation workstation was used to transfer 150 μL of supernatant from each reaction plate to its corresponding bioanaylsis plate, which was shaken for 10 minutes prior to LC-MS/MS analysis.
Method 2. Rat brain tissue homogenate samples were prepared by diluting one volume of whole rat brain tissue with two volumes of dialysis buffer (phosphate buffered saline pH 7.4-0.1 M sodium phosphate and 0.15 M sodium chloride) to yield 3 times diluted homogenate. Test compounds were spiked into 400 μL aliquots (n=3) of rat brain homogenate and the resulting mixtures were incubated at 37° C. […] An aliquot (100 μL) of each sample was transferred to a 96-well deep plate and analyzed by LC-MS/MS.

[4] = 10-30 min after antagonist administration (0.01 to 10 mg/kg SC), DOPR 0.32 mg/kg SC
[5] = 55-65 min after antagonist administration (45-55 min after DOPR 0.32 mg/kg SC)
[6] = Method 2: 3 times diluted homogenate

| Structure (SMILES) | Attenuation of DOPR-induced elevation of MABP [1, 4] | Attenuation of DOPR-induced elevation of MABP [1, 5] | % Remaining (120 minutes), rat plasma ([2]; Method 1: 2 μM) | % Remaining (120 minutes), rat brain homogenate ([3]; Method 1: 1 μM) | % Remaining (120 minutes), rat plasma ([2]; Method 2: 5 μM) | % Remaining (120 minutes), rat brain homogenate [3, 6] |
| --- | --- | --- | --- | --- | --- | --- |
| CC(CNC(=N)CNc1ccccc1)Oc1cccc(Cl)c1.O=CO (stereo not shown) [BW501C67, N-(2-(3-chlorophenoxy)propyl)-2-(phenylamino)acetimidamide formate] | significantly attenuated | showing activity at lower doses | 100.7% | 110.8% | – | – |
| COc1cccc(C(=O)Nc2ccc(OCCN3CCOCC3)c(-c3ccnn3C)c2)c1 [temanogrel] | – | – | – | – | 95% | 101% |
| CC(C)COc1ccc(CNC(=O)N(Cc2ccc(F)cc2)C2CCN(C(=O)CC[C@H](N)C(=O)O)CC2)cc1 [Compound 14a, (S)-2-amino-5-(4-(1-(4-fluorobenzyl)-3-(4-isobutoxybenzyl)ureido)piperidin-1-yl)-5-oxopentanoic acid] | failed to significantly attenuate | – | – | – | 97% | – |
| COc1cccc(CCc2ccccc2OCC(CN(C)C)OC(=O)CCC(=O)O)c1 (stereo not shown) [sarpogrelate] | – | – | – | – | 67% | – |
| COc1cccc(OC(C)CNC(=N)Cc2cccc(C)c2)c1.O=C(O)C(F)(F)F (stereo not shown) [xylamidine, N-(2-(3-methoxyphenoxy)propyl)-2-(m-tolyl) acetimidamide trifluoroacetate] | significantly attenuated | showing activity at lower doses | – | – | 94% | 100% |
